Measurements reported in patent US20070197432A1, “Peptides for preventing, diagnosing and treating animal and/or human leptospirosis” (priority 2002, published 2007).
No end group written: not given here.

Columns and labels:
[1] = tested on: Leptospira interrogans sl serovar canicola; test: Trial 2: gerbils immunized with PP-KLH or PP, 10^−2 canicola challenge; assay type: in vivo, gerbil; set-up: Mortality rate / Survival rate: unit not given here
Experimental: An immunization/challenge trial was carried out in order to evaluate the protection that can be provided by the PP peptide (SEQ ID No. 1) coupled or not coupled to the KLH protein.
This construct is administered subcutaneously without adjuvant, and PBS is administered by the same route as the negative control (batch 3). • Batch 1: 12 gerbils, 2 injections of 30 μg of PP-KLH in 300 μl. • Batch 2: 12 gerbils, 2 injections of 30 μg of PP in 300 μl. • Batch 3: 15 gerbils, 2 injections of PBS in 300 A1.
The two injections in a volume of 300 μl were administered subcutaneously, two weeks apart. A challenge by intraperitoneal injection of 0.5 ml of a serovar canicola leptospiral culture with a titer of 90 to 100 TU (turbidimetry) diluted to 10^−2 was administered three weeks after the second injection.

PP peptide = test: Immunization of rabbit with noncoupled PP peptide, anti-PP IgG ELISA; assay type: in vivo
Experimental: To test the immunogenicity of the PP peptide alone, immunization with the PP peptide in the rabbit model was carried out, with incomplete Freund's adjuvant being added to each injection.
More precisely, two injections of 400 μg of PP peptide with incomplete Freund's adjuvant (v/v) were administered in a total volume of 2 ml.
The two injections were administered subcutaneously, two weeks apart. The rabbit serum was recovered two weeks after the second injection. The anti-PP antibodies were titered on this serum.
The anti-PP antibodies were titered in the rabbit by the ELISA technique described above, with a biotinylated anti-rabbit antiglobulin (BioAtlantic) at 1/3000 and peroxidase-coupled streptavidin as visualizing agent (RPN1231, Amersham pharmacia biotech)
The results of the anti-PP IgG antibody response, expressed as corrected OD (OD at D28, therefore after the second immunization, minus the OD at D0), of the immunization trial with the PP peptide are given in FIG. 3.

[2] = tested on: Leptospira interrogans sl serovar canicola; test: Trial 1: gerbils immunized with PP-KLH, 10^−2.5 canicola challenge; assay type: in vivo, gerbil; conditions: Experiment 1, survival
Experimental: An immunization/challenge protocol was carried out in order to evaluate the protection that can be provided by the PP peptide (SEQ ID No. 1) coupled to the KLH protein.
This construct is administered subcutaneously without adjuvant, with PBS as a negative control (batch 2).
Batch 1: 10 gerbils, 2 injections of 30 μg of PP-KLH in 300 μl, subcutaneously.
Batch 2: 10 gerbils, 2 injections of PBS in 300 μl.
The two injections in a volume of 300 μl were administered subcutaneously, two weeks apart. A challenge by intraperitoneal injection of 0.5 ml of a canicola culture with a titer of 90 to 100 TU (turbidimetry) diluted to 10^−2.5 was administered two weeks after the second injection. • Antigenic response: Monitoring by ELISA of the immune response of the gerbils against the PP peptide

KAKPVQKLDDDDDGDDTYKEERHNK [PP peptide, 25 amino acid peptide, fragment aa153-aa177 of the PPL protein of Leptospira interrogans]
Mortality rate ([1]; 10^−2 canicola challenge): 33.3 | Survival rate ([1]; 10^−2 canicola challenge): 66.7 | mortality in the group (dead/number) ([1]; 10^−2 canicola challenge): 4/12 | gerbils at challenge ([1]; 10^−2 canicola challenge, D0): 12 | mortality of gerbils (dead/number) ([1]; 10^−2 canicola challenge, D4): 0/12 | mortality of gerbils (dead/number) ([1]; 10^−2 canicola challenge, D5): 0/12 | mortality of gerbils (dead/number) ([1]; 10^−2 canicola challenge, D6): 0/12 | mortality of gerbils (dead/number) ([1]; 10^−2 canicola challenge, D7): 0/12 | mortality of gerbils (dead/number) ([1]; 10^−2 canicola challenge, D8): 2/12 | mortality of gerbils (dead/number) ([1]; 10^−2 canicola challenge, D9): 2/10 | mortality of gerbils (dead/number) ([1]; 10^−2 canicola challenge, D10): 0/8 | mortality of gerbils (dead/number) ([1]; 10^−2 canicola challenge, D11): 0/8 | mortality of gerbils (dead/number) ([1]; 10^−2 canicola challenge, D12): 0/8 | mortality of gerbils (dead/number) ([1]; 10^−2 canicola challenge, D13): 0/8 | mortality of gerbils (dead/number) ([1]; 10^−2 canicola challenge, D14): 0/8 | mortality of gerbils (dead/number) ([1]; 10^−2 canicola challenge, D15): 0/8 | mortality of gerbils (dead/number) ([1]; 10^−2 canicola challenge, D16): 0/8 | mortality of gerbils (dead/number) ([1]; 10^−2 canicola challenge, D17): 0/8 | mortality of gerbils (dead/number) ([1]; 10^−2 canicola challenge, D28): 0/8 | p, log-rank test versus control ([1]; Experiment 2, survival): < 0.02 | χ^2, log-rank test versus control ([1]; Experiment 2, survival): 5.64 | p, log-rank test versus control ([1]; Experiment 2, survival, listed as PP): <2.10^−2 | serum dilution at which response against the PP peptide can still be detected (PP peptide; 2 s.c. injections of 400 μg with incomplete Freund's adjuvant, D28): ≥ 102 400 | immunogenicity (PP peptide; peptide alone): very immunogenic | p, log-rank test versus control [2]: < 0.07
